The target in this experiment is T1, rat peripheral BZD receptor (Rattus norvegicus, UniProt P16257).
T1 construct: rat heart membranes and [3H]PK 11195; from tissue; host or cells: rat heart membrane homogenates
Description: radioligand binding test, [3H]PK 11195, rat heart membranes. The note with it: 10 μM test compound; 0.2 nM [3H]PK 11195; rat heart membrane homogenates; 15 min at 22° C. The procedure:
Evaluation of the in vitro affinity of test substances for the rat peripheral BZD receptor was performed according to Le Fur et al. (1983). Life Sci., 33: 449-457. For this purpose, rat heart membranes and [3H]PK 11195 (1-(2-chlorophenyl)-N-methyl-N-(1-methylpropyl)-3-isoquinolinecarboxamide) were used in a radioligand binding test system.
In detail, membrane homogenates of heart (20 μg protein) are incubated for 15 min at 22° C. with 0.2 nM [3H]PK 11195 in the absence or presence of the test compound in a buffer containing 50 mM Tris-HCl (pH 7.4) and 10 mM MgCl2 (96-well plate format). Compound addition is 100× solution in solvent. Nonspecific binding is determined in the presence of 10 μM PK 11195. Following incubation, the samples are filtered rapidly under vacuum through glass fiber filters (GF/B, Packard) presoaked with 0.3% PEI and rinsed several times with ice-cold 50 mM Tris-HCl using a 96-sample cell harvester (Unifilter, Packard). The filters are dried, then counted for radioactivity in a scintillation counter (Topcount, Packard) using a scintillation cocktail (Microscint 0, Packard). The results are expressed as a percent inhibition of the control radioligand specific binding.
The standard reference compound is PK 11195, which is tested in each experiment concurrently with the test compounds.
For analysis, the specific ligand binding to the receptors is defined as the difference between the total binding and the nonspecific binding determined in the presence of an excess of unlabelled ligand. The results are expressed as a percent of control specific binding ((measured specific binding/control specific binding)×100) obtained in the presence of the test compounds.
In general, inhibition refers to the change of the read-out against control, counted positive when it falls. Turning to `Cc1c(C(=O)NCc2cccc(F)c2)c(C(C)C)nc2cc(C(F)(F)F)ccc12` [compound 1, N-[(3-Fluorophenyl)-methyl]-2-isopropyl-4-methyl-7-(trifluoromethyl)-quinoline-3-carboxylic acid amide], the inhibition at 10 µM worked out at 87%.

For the molecule `CCSc1nc(N2CCOCC2)cc(C)c1C(=O)NCCCC(C)(C)C` [compound 2, N-(4,4-Dimethyl-pentyl)-2-ethylsulfanyl-4-methyl-6-morpholin-4-yl-pyridine-3-carboxylic acid amide], the inhibition at 10 µM is 43%.

As to `CCSc1nc(N2CCOCC2)cc(C)c1C(=O)NCc1ccc(Cl)cc1` [compound 3, N-[(4-Chlorophenyl)-methyl]-2-ethylsulfanyl-4-methyl-6-morpholin-4-yl-pyridine-3-carboxylic acid amide], the inhibition at 10 µM is 91%.

`COc1nc(N2CCOCC2)cc(C)c1C(=O)NCc1ccc(Cl)cc1` [compound 4, N-[(4-Chlorophenyl)-methyl]-2-methoxy-4-methyl-6-morpholin-4-yl-pyridine-3-carboxylic acid amide]: the inhibition at 10 µM was determined as 49%.

As for `O=C(NCc1ccc(F)cc1)c1cccnc1SCCC(F)(F)c1ccc(F)cc1` [compound 5, 2-[[3,3-Difluoro-3-(4-fluorophenyl)-propyl]sulfanyl]-N-[(4-fluorophenyl)-methyl]-pyridine-3-carboxylic acid amide], the inhibition at 10 µM was determined as 102%.

In the case of `O=C(NCC1CC2CCC1C2)c1cccnc1SCCC(F)(F)c1ccc(F)cc1` (stereo not drawn) [compound 6, N-(5-Bicyclo[2.2.1]heptanyl-methyl)-2-[[3,3-difluoro-3-(4-fluorophenyl)-propyl]sulfanyl]-pyridine-3-carboxylic acid amide], the inhibition at 10 µM worked out at 99%.

Turning to `Cc1cc(N2CCOCC2)nc(C2CC2)c1C(=O)NCc1ccc(Cl)cc1` [compound 7, N-[(4-Chlorophenyl)-methyl]-2-cyclopropyl-4-methyl-6-morpholin-4-yl-pyridine-3-carboxylic acid amide], the inhibition at 10 µM was 57%.

Take `COc1nc(N2CCOCC2)cc(C)c1C(=O)NCc1cccc(F)c1` [compound 8, N-[(3-Fluorophenyl)-methyl]-2-methoxy-4-methyl-6-morpholin-4-yl-pyridine-3-carboxylic acid amide]: the inhibition at 10 µM was determined as 103%.

In the case of `COc1nc(N2CCOCC2)cc(C)c1C(=O)NCc1ccc(F)cc1` [compound 9, N-[(4-Fluorophenyl)-methyl]-2-methoxy-4-methyl-6-morpholin-4-yl-pyridine-3-carboxylic acid amide], the inhibition at 10 µM is 53%.

`CCCc1nc(N2CCOCC2)cc(C)c1C(=O)NCc1cccc(F)c1` [compound 10, N-[(3-Fluorophenyl)-methyl]-4-methyl-6-morpholin-4-yl-2-propyl-pyridine-3-carboxylic acid amide]: the inhibition at 10 µM stood at 91%.

On to `Cc1cc(N2CCOCC2)nc(C2CC2)c1C(=O)NCc1ccc(F)cc1` [compound 11, 2-Cyclopropyl-N-[(4-fluorophenyl)-methyl]-4-methyl-6-morpholin-4-yl-pyridine-3-carboxylic acid amide], for which the inhibition at 10 µM worked out at 87%.

Take `CC(C)CCNC(=O)c1cccnc1SCCC(F)(F)c1ccc(F)c(F)c1` [compound 12, 2-[[3-(3,4-Difluoro-phenyl)-3,3-difluoro-propyl]-sulfanyl]-N-(3-methyl-butyl)-pyridine-3-carboxylic acid amide]: the inhibition at 10 µM was 97%.

Turning to `CCSc1nc(N2CCOCC2)cc(C)c1C(=O)NCc1cccc(F)c1` [compound 13, 2-Ethylsulfanyl-N-[(3-fluorophenyl)-methyl]-4-methyl-6-morpholin-4-yl-pyridine-3-carboxylic acid amide], the inhibition at 10 µM was 95%.

Consider `Cc1cc(N2CCOCC2)nc(C2CC2)c1C(=O)NCc1cccc(F)c1` [compound 15, 2-Cyclopropyl-N-[(3-fluorophenyl)-methyl]-4-methyl-6-morpholin-4-yl-pyridine-3-carboxylic acid amide], for which the inhibition at 10 µM was 90%.

As for `CC(C)CCNC(=O)c1cccnc1SCCC(F)(F)c1ccc(F)cc1` [compound 16, 2-[[3,3-Difluoro-3-(4-fluorophenyl)-propyl]sulfanyl]-N-(3-methyl-butyl)-pyridine-3-carboxylic acid amide], the inhibition at 10 µM is 96%.
